Twelve compounds from patent publication US20240391954A1, “MC4R AGONIST PEPTIDES” (The Regents of the University of Michigan, priority 2021, published 2024) can be followed below.

Positions of bridges follow the written chain, without caps; N, C: chain ends. Non-standard residues stand in square brackets, D forms with d. Residues, ends and D or L forms follow the SMILES beside them. NMeR = CN[C@@H](CCCNC(=N)N)C(=O)O; 2Pal = N[C@@H](Cc1ccccn1)C(=O)O; 4Pal = N[C@@H](Cc1ccncc1)C(=O)O; Cit = NC(=O)NCCC[C@H](N)C(=O)O; Nle = CCCC[C@H](N)C(=O)O; Aib = CC(C)(N)C(=O)O

What all share (type): cell-based
One assay deals with T1, human MC4R (Homo sapiens, UniProt P32245).
T1 construct: host or cells: HEK-293 cells stably expressing the GScAMP22F split-luciferase cAMP sensor and hMC4R, G418 selection
Kind of assay: split-luciferase cAMP sensor assay, agonist mode (measurement window 1), hMC4R. Conditions: agonist mode; for Emax: read-out: MC4R cAMP % max activation; for EC50: HEK-293 cells stably expressing hMC4R, read-out: MC4R cAMP EC50. The method, boiled down:
(§1)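 EC50 values come from a four-parameter variable-slope fit of luminescence in measurement window 1, capturing direct peptide effects on receptor-expressing cells with a cAMP22f luciferase sensor. Cells were preloaded with 4% D-luciferin, serum-free medium; 20 μM forskolin normalized for cell number and transducer efficiency.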

A further assay addresses T2, human MC1R (Homo sapiens, UniProt Q01726).
T2 construct: expressed in transfected cells; host or cells: HEK-293 cells stably expressing hMC1R and the GScAMP22F cAMP sensor
Kind of assay: split-luciferase cAMP sensor assay, agonist mode, hMC1R. Conditions: MC4R versus MC1R. The method, boiled down: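 HEK-293 cells stably expressing hMC1R and the GScAMP22F split-luciferase cAMP sensor, preloaded 120 min at 37° C with D-luciferin in serum-free medium. Peptide responses were taken as peak luminescence over 2-13 min minus 2-min baseline, normalized to the α-MSH ECmax. EC50 was obtained from a four-parameter variable-slope fit.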

A further assay concerns the target T3, human MC3R (Homo sapiens, UniProt P41968).
T3 construct: expressed in transfected cells; host or cells: HEK-293 cells stably expressing the GScAMP22F split-luciferase cAMP sensor (parent reporter line from Promega); MC3R clone generated in-house, G418 selection
Kind of assay: split-luciferase cAMP sensor assay, agonist mode (measurement window 1), hMC3R. Conditions: for Emax: read-out: MC3R cAMP % max activation; for MC4R selectivity vs MC3R: MC4R versus MC3R; for EC50: HEK-293 cells stably expressing hMC3R, read-out: MC3R cAMP EC50. The method, boiled down: as §1

[1] abbreviates: % maximal activation, agonist mode.

T1 sequence (P32245 whole entry): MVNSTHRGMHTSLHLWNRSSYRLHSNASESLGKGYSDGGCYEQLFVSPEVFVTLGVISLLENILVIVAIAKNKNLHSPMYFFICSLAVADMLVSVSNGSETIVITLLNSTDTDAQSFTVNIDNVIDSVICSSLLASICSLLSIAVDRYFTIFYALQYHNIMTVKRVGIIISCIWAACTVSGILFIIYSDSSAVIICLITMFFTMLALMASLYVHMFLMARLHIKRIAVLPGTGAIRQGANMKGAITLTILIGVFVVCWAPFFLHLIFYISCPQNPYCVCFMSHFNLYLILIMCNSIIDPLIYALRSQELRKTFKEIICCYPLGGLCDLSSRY
T2 sequence (Q01726 whole entry): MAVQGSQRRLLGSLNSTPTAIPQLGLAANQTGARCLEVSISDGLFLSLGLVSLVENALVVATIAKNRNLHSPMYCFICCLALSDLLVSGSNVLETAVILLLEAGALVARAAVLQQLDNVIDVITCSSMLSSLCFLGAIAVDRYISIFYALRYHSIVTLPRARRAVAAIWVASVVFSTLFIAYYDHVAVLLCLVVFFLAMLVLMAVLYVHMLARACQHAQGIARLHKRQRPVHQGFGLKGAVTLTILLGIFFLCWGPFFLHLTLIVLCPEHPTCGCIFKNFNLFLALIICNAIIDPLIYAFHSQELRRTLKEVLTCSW
T3 sequence (P41968 whole entry): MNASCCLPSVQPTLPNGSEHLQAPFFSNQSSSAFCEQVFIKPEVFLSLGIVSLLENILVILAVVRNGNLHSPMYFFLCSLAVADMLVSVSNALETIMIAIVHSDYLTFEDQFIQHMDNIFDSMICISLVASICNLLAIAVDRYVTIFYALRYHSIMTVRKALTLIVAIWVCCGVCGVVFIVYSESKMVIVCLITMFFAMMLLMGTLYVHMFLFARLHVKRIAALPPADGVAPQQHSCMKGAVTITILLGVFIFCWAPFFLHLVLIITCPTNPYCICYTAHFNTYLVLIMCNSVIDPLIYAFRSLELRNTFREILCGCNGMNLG

The term EC50 denotes the concentration at which the effect is half-maximal. Take `CCCC[C@H](NC(=O)[C@H](CCCNC(=N)N)NC(C)=O)C(=O)N[C@H]1CSSC[C@@H](C(N)=O)NC(=O)[C@H](Cc2c[nH]c3ccccc23)NC(=O)[C@H](CCCNC(=N)N)NC(=O)[C@@H](Cc2ccccc2)NC(=O)[C@H](Cc2ccccn2)NC1=O` [CTX-1619, Arg-Nle-cyclo(Cys-Pal(2′)-D-Phe-Arg-Trp-Cys)] (Ac-R[Nle]C[2Pal][dF]RWC-NH2; disulfide 3-8 (inferred)): the Emax on human MC4R (% maximal activation) was determined as 99%; at human MC3R (setting [1]), 84%. Moreover, the concentration giving a half-maximal response (EC50) on human MC4R stood at 2.6 nM. Further, the “MC4R selectivity vs MC1R” value on human MC1R worked out at 86. Also, the “MC4R selectivity vs MC3R” value at human MC3R was found to be 13.

As for `CC1(C)NC(=O)CSC[C@@H](C(N)=O)NC(=O)[C@H](Cc2c[nH]c3ccccc23)NC(=O)[C@H](CCCNC(=N)N)NC(=O)[C@@H](Cc2ccccc2)NC(=O)[C@H](Cc2c[nH]cn2)NC1=O` [CTX-1647, Thioether-cyclo(Aib-His-D-Phe-Arg-Trp-Cys)], the Emax on human MC4R (% maximal activation) turned out to be 109%; on human MC3R (setting [1]), 102%. The “MC4R selectivity vs MC1R” value at human MC1R was determined as 3.66. Besides, the “MC4R selectivity vs MC3R” value at human MC3R is reported as 30.

Turning to `CCCC[C@H](NC(=O)[C@H](CCCNC(=N)N)NC(C)=O)C(=O)N[C@H]1CSSC[C@@H](C(N)=O)NC(=O)[C@H](Cc2c[nH]c3ccccc23)NC(=O)[C@H](CCCNC(=N)N)NC(=O)[C@@H](Cc2ccccc2)NC(=O)[C@H](Cc2ccncc2)NC1=O` [CTX-1621, Arg-Nle-cyclo(Cys-Pal(4′)-D-Phe-Arg-Trp-Cys)] (Ac-R[Nle]C[4Pal][dF]RWC-NH2; disulfide 3-8 (inferred)), the Emax at human MC4R (% maximal activation) came to 92%; at human MC3R (setting [1]), 15%. In addition, on human MC4R, the EC50 was determined as 2.9 nM. For the same compound, at human MC1R, the “MC4R selectivity vs MC1R” value is 82. Further, the “MC4R selectivity vs MC3R” value on human MC3R is recorded as 13.

For the compound `CC(=O)N[C@@H](CCCNC(=N)N)C(=O)N[C@H]1CSSC[C@@H](C(N)=O)NC(=O)[C@H](Cc2c[nH]c3ccccc23)NC(=O)[C@H](CCCNC(=N)N)NC(=O)[C@@H](Cc2ccccc2)NC(=O)[C@H](CCCNC(=N)N)NC(=O)C(C)(C)NC1=O` [CTX-1292, Arg-cyclo(Cys-Aib-Arg-D-Phe-Arg-Trp-Cys)] (Ac-RC[Aib]R[dF]RWC-NH2; disulfide 2-8 (inferred)), the values for the Emax at human MC4R (% maximal activation) and on human MC3R (setting [1]) were 90% and 76%, respectively. For the same compound, at human MC1R, the “MC4R selectivity vs MC1R” value is reported as 2.46. The “MC4R selectivity vs MC3R” value at human MC3R came to 21.

For the compound `CC(=O)N[C@@H](CCCNC(=N)N)C(=O)N[C@H]1CSSC[C@@H](C(N)=O)NC(=O)[C@@H](Cc2ccccc2)NC(=O)[C@H](CCCNC(=N)N)NC(=O)[C@@H](Cc2ccccc2)NC(=O)[C@H](CCCNC(=N)N)NC(=O)[C@@H](C)NC1=O` [CTX-1257, Arg-cyclo(Cys-D-Ala-Arg-D-Phe-Arg-D-Phe-Cys)] (Ac-RC[dA]R[dF]R[dF]C-NH2; disulfide 2-8 (inferred)), the “MC4R cAMP % max activation” value on human MC4R (% maximal activation) is listed as “(94%)”. In addition, the concentration giving a half-maximal response (EC50) at human MC4R was found to be 692 nM. In addition, on human MC1R, the “MC4R selectivity vs MC1R” value is 0.02. The “MC3R cAMP % max activation” value on human MC3R (setting [1]) was “(88%)”. Also, the “MC4R selectivity vs MC3R” value on human MC3R is recorded as 0.06.

`CC1(C)NC(=O)CSC[C@@H](C(N)=O)NC(=O)[C@H](Cc2ccccc2)NC(=O)[C@H](CCCNC(=N)N)NC(=O)[C@@H](Cc2ccccc2)NC(=O)[C@H](CCCNC(=N)N)NC1=O` [CTX-1651, Thioether-cyclo(Aib-Arg-D-Phe-Arg-Phe-Cys)] ({CH2CO}-[Aib]R[dF]RFC-NH2; thioether N-6): the Emax at human MC4R (% maximal activation) was determined as 92%. Moreover, on human MC1R, the “MC4R selectivity vs MC1R” value worked out at 1.45. The concentration for a half-maximal effect (EC50) at human MC3R (agonist mode) was above 10000 nM. Moreover, the “MC4R selectivity vs MC3R” value on human MC3R is recorded as above 8.

`CC(=O)N[C@@H](CCCNC(=N)N)C(=O)N[C@H]1CSSC[C@@H](C(N)=O)NC(=O)[C@@H](Cc2c[nH]c3ccccc23)NC(=O)[C@H](CCCNC(=N)N)N(C)C(=O)[C@@H](Cc2ccccc2)NC(=O)[C@H](CCCNC(=N)N)NC(=O)[C@@H](C)NC1=O` [CTX-1284, Arg-cyclo(Cys-D-Ala-Arg-D-Phe-N-Me-Arg-D-Trp-Cys)] (Ac-RC[dA]R[dF][NMeR][dW]C-NH2; disulfide 2-8): the Emax on human MC4R (% maximal activation) is 91%; at human MC3R (setting [1]), 45%. Moreover, the “MC4R selectivity vs MC1R” value at human MC1R came out at 0.15. Moreover, the EC50 on human MC3R (agonist mode) was 1040 nM. The “MC4R selectivity vs MC3R” value on human MC3R is 8.11.

On to `CC(=O)N[C@H]1CSSC[C@@H](C(N)=O)NC(=O)[C@H](Cc2c[nH]c3ccccc23)NC(=O)[C@H](CCCNC(=N)N)NC(=O)[C@@H](Cc2ccccc2)NC(=O)[C@H](Cc2c[nH]cn2)NC(=O)C(C)(C)NC1=O` [CTX-1631, cyclo(Cys-Aib-His-D-Phe-Arg-Trp-Cys)], for which the values for the Emax on human MC4R (% maximal activation) and on human MC3R (setting [1]) were 107% and 100%, respectively. For the same compound, on human MC1R, the “MC4R selectivity vs MC1R” value was determined as 4.09. On human MC3R, the “MC4R selectivity vs MC3R” value was 6.91.

As for `CC(=O)N[C@H]1CSSC[C@@H](C(N)=O)NC(=O)[C@H](Cc2ccccc2)NC(=O)[C@H](CCCNC(=N)N)NC(=O)[C@@H](Cc2ccccc2)NC(=O)[C@H](Cc2c[nH]cn2)NC(=O)C(C)(C)NC1=O` [CTX-1634, cyclo(Cys-Aib-His-D-Phe-Arg-Phe-Cys)] (Ac-C[Aib]H[dF]RFC-NH2; disulfide 1-7 (inferred)), the Emax at human MC4R (% maximal activation) is 107%; on human MC3R (setting [1]), 94%. The “MC4R selectivity vs MC1R” value on human MC1R worked out at 4.02. Besides, on human MC3R, the “MC4R selectivity vs MC3R” value turned out to be 6.68.

For `COc1ccc(C[C@H]2NC(=O)[C@H](CCCNC(=N)N)NC(=O)C(C)(C)NC(=O)[C@@H](NC(=O)[C@H](CCCNC(=N)N)NC(C)=O)CSSC[C@@H](C(N)=O)NC(=O)[C@@H](Cc3c[nH]c4ccccc34)NC(=O)[C@H](CCCNC(=N)N)NC2=O)cc1` [CTX-1297, Arg-cyclo(Cys-Aib-Arg-D-Tyr(4-OMe)-Arg-D-Trp-Cys)] (Ac-RC[Aib]R[dY](Me)R[dW]C-NH2; disulfide 2-8 (inferred)), the Emax on human MC4R (% maximal activation) stood at 97%. The half-maximal effective concentration (EC50) was 3.3 nM on human MC4R and above 10000 nM on human MC3R (agonist mode). For the same compound, the “MC4R selectivity vs MC1R” value on human MC1R is given as 0.52. The “MC4R selectivity vs MC3R” value on human MC3R is reported as >3,000.

With `CC(=O)N[C@H]1CSSC[C@@H](C(N)=O)NC(=O)[C@H](Cc2c[nH]c3ccccc23)NC(=O)[C@H](CCCNC(=N)N)NC(=O)[C@@H](Cc2ccccc2)NC(=O)[C@H](CCCNC(N)=O)NC(=O)C(C)(C)NC1=O` [CTX-1633, cyclo(Cys-Aib-Cit-D-Phe-Arg-Trp-Cys)] (Ac-C[Aib][Cit][dF]RWC-NH2; disulfide 1-7 (inferred)), the Emax on human MC4R (% maximal activation) was 110%; at human MC3R (setting [1]) it was 45%. Further, the “MC4R selectivity vs MC1R” value at human MC1R was 942. For the same compound, the “MC4R selectivity vs MC3R” value at human MC3R was determined as 104.

For the compound `CC(=O)N[C@H]1CSSC[C@@H](C(N)=O)NC(=O)[C@H](Cc2c[nH]c3ccccc23)NC(=O)[C@H](CCCNC(=N)N)NC(=O)[C@@H](Cc2ccccc2)NC(=O)[C@H](CCCNC(=N)N)NC(=O)CNC1=O` [CTX-1629, cyclo(Cys-Gly-Arg-D-Phe-Arg-Trp-Cys)] (Ac-CGR[dF]RWC-NH2; disulfide 1-7), the results for the Emax on human MC4R (% maximal activation) and at human MC3R (setting [1]) were 102% and 83%, respectively. In addition, at human MC1R, the “MC4R selectivity vs MC1R” value was 15. Further, at human MC3R (agonist mode), the concentration giving a half-maximal response (EC50) was determined as 13 nM. Moreover, the “MC4R selectivity vs MC3R” value at human MC3R is 19.
